In patent US20070275953A1 (priority 2003, published 2007):
Like-named read-outs stand apart in the source and are kept apart here.

Columns and labels:
[1] = tested on: HIV-1 with WT (wild type) RT in P4 cells; experiment: Anti-HIV assay on P4 cell line, WT RT; type: cell-based; settings: P4 cell line, WT RT; for EC50: read-out: EC50 WT
Description: (§1) For the antiviral and the cytotoxicity assays, the drugs were diluted in complete DMEM medium. In these experiments, drugs were diluted in triplicate wells in a 96-well plate in six, 5 fold serial dilutions.
(§2) Two days later, co-cultivation with SupT1 cells (a human T-cell lymphoma cell line) was initiated to facilitate rapid production of progeny virions. Production of virus was measured by using the Innotest HIV Antigen mAb p24 kit (Innogenetics). At the peak of production cultures were harvested and filtered. The virus stocks were stored at −80° C. until used.
Anti-HIV activity and cytotoxicity of the compounds were tested on a P4 cell line. […] The P4 cells were cultured in complete DMEM medium supplemented with 10% fetal bovine serum (FBS), 0.5% of Penicillin/Streptomycin and G418 at 0.5 mg/ml. Exponentially growing cells were trypsinized, centrifuged and split twice weekly at 5.10^4 cells/ml.
The P4 cells are HIV-infectible Hela-CD4 cells that carry the bacterial lacZ gene under the control of the HIV-1 long terminal repeat (LTR). In this cell line, transcription of the LacZ gene is driven by the HIV-1 LTR. […] In other words, in this system, the expression level of the β-galactosidase gene is proportional to the viral replication.
Briefly, in the anti-HIV assay 100 Ål of P4 cells were plated in 96-well plate at a concentration of 0.4 10^5 cells/ml and incubated at 37° C., 5% CO2. After 48 h, the medium was removed and 100 Ål of the different drugs dilutions were added to the cells. Four hours after the addition of the drugs all cells were infected with equal amount of cell-free virus, corresponding to 100 ng of HIV p24 antigen. After 48 h of incubation at 37° C., 5% CO2, β-galactosidase activity was measured using chlorophenol red-β-D-galactopyranoside assays.
Each assay was performed a minimum of three times. The 50% effective concentration (Ec50) was calculated from each dose response curve using the CurveExpert 1.3 software.

[2] = tested on: HIV-1 with WT (wild type) RT in PBMC; experiment: Anti-HIV assay on PBMC, WT RT (p24); type: cell-based
Description: as §2, with “Wurzburg Jurkat T cells (subclone JR) were transfected with 10 μg of the circularly permuted infectious molecular clone HIVNL4-3 (Adachi et al., 1986. J. Virol, 59 (2), p 284-291). Two” for “Two”
Anti-HIV activity of the compounds was tested on Peripheral Blood Mononuclear Cells (PBMCs). These cells were separated from the blood of healthy donor using established procedures. PBMCs were cultured in RPMI medium supplemented with 10% fetal bovine serum (FBS), 1% Penicillin/Streptomycin and 20 U/ml of Interleukin-2.
PBMCs isolated from the blood of healthy donor contain CD4^+ T-lymphocytes which are one of the main targets of HIV in infected individuals.
Briefly, in the anti-HIV assay PBMCs, activated with phytohemagglutinin, were infected with HIV-1. 100 μl of infected PBMCs were seeded in 96-well plate at a concentration of 1 10^5 cells/ml, and 100 μl of the different drugs dilutions were added to the cells. After 4 days of incubation at 37° C., 5% CO2, cells cultures supernatants were collected. The amount of the viral capsid protein p24 in the supernatants was measured using the Innotest HIV Antigen mAb P24 kit (Innogenetics).

[3] = tested on: HIV-1 with WT (wild type) RT in MT4 cells; experiment: Anti-HIV assay on MT4 cell line, WT RT; type: cell-based
Description: as §2, with “Wurzburg Jurkat T cells (subclone JR) were transfected with 10 μg of the circularly permuted infectious molecular clone HIVNL4-3 (Adachi et al., 1986. J. Virol, 59 (2), p 284-291). Two” for “Two”
Anti-HIV activity of the compounds was tested on MT-4 cell line. The MT-4 cell line (Larder et al. 1989. Sciences, Vol. 243 p 1731) was received from the NIH AIDS Research and Reference Reagent Program. These cells were cultured in RPMI medium supplemented with 10% fetal bovine serum (FBS), and 1% Penicillin/Streptomycin. The cultures were split regularly to keep cells densities between 0.3 to 1.2 10^6 cells/ml.
The MT-4 cells rapidly die upon infection by HIV. In this system there is an inverse correlation between cells survival and the amount of viral replication.
Briefly, in the anti-HIV assay exponentially growing MT-4 cells were infected with HIV-1. 100 μl of infected MT-4 cells were seeded in 96-well plate at a concentration of 0.4 10^5 cells/ml, and 100 μl of the different drugs dilutions were added to the cells. After 4 days of incubation at 37° C., 5% CO2, cells survival was measured using MTS (3-(4-5-dimethylthiazol-2-yl)-5-(−(3-carboxymethoxyphenyl)-2-(4-sulfophenyl)-2H-tetrazolium) assays. This compound is reduced by viable cells in a colored soluble formazan salt.
The absorbance was measured on a Benchmark™ Microplate Reader (Biorad) (λ=490 nm) and compared with 12 cell control replicates (nor virus nor drug added) and 12 virus control wells (no drug added). Each assay was performed a minimum of three times. The 50% effective concentration (EC50) was calculated from each dose response curve using the CurveExpert 1.3 software.

[4] = biological target: T1, HIV-1 reverse transcriptase (Human immunodeficiency virus type 1 group M subtype B, UniProt P04585); experiment: RT activity after separation of unbound compound on micro-spin desalting column; type: biochemical; settings: after preincubation with RT
T1 construct: fixed-time assay for HIV-1 reverse transcriptase RNA dependent DNA polymerase activity; RT was purchased from Calbiochem; purchased Calbiochem CAL382129-500
Description: After the preincubation, the unbound Z122 and the RT were separated using a micro-spin desalting column.

[5] = biological target: T1, HIV-1 reverse transcriptase; experiment: RT inhibition as a function of preincubation time with the RT; type: biochemical
Description: Z122 seems to be an irreversible inhibitor of the reverse transcriptase.

[6] = Cytotoxicity (CC50), MTT assay on P4 cells; type: cell-based; settings: human
Description: as §1
(§3) The 50% cytotoxic concentration (CCso) was determined using a protocol adapted from Pauwels et al. (1988. J. Virol. Methods 20(4):309-21). Briefly, flat bottom 96-well plates were filled with 50 μl of complete medium containing 5.10^3 P4 cells. 2 hours later 50 μl of drug solution were added to the cells. Drugs (dissolved in DMEM, see above) were diluted in six, 5-fold serial dilutions from stock solutions in triplicate wells of a 96-well plate. Cells and compounds were incubated at 37° C. in growth medium for 3 days. Cell viability was determined by MTT assays using the Roche Cell Proliferation KIT. The absorbance (λ=570 nm) was measured on a Benchmark™ Microplate Reader (Biorad) and compared with 12 cell control replicates (no drug added). Each assay was performed at least three times for a total of at least nine replicate wells. This method detects both cytostatic and cytolytic effects of drugs.

[7] = biological target: T1, HIV-1 reverse transcriptase; experiment: HIV-1 in vitro reverse transcriptase activity (fixed-time RNA dependent DNA polymerase assay); type: biochemical; settings: residual RT activity, compound at 10 μM; RT activity without compound set at 100%
Description: For the in vitro inhibition studies of the HIV-1 reverse transcriptase activity, stock solutions of the compounds of the present invention were prepared in dimethyl sulfoxide at a final concentration of 10 mM and kept at room temperature. Nevirapine was purchased from Boehringer Ingelheim. Efavirenz was received from the NIH AIDS Research and Reference Reagent Program.
In vitro inhibition studies used a fixed-time assay for HIV-1 reverse transcriptase RNA dependent DNA polymerase activity. RT was purchased from Calbiochem (ref CAL382129-500). One unit of RT corresponds to the amount of enzyme which incorporates one nanomole of [^3H]TTP in 10 minutes at 37° C.
Assays were performed in a final volume of 50 μl. […] Reaction mixtures were incubated at 37° C. for 10 min. The incorporation rate was determined by a standard trichloroacetic acid precipitation procedure (adapted from Current protocols in molecular biology. Eds Wiley, MGH Harvard medical school) and liquid scintillation counting using a Wallac scintillation counter.
The in vitro activity of the compounds, at a final concentration of 10 μM, on the reverse transcriptase (RT) activity of HIV-1 is derivable from the relative (%) reduction in RT activity. Hereby, the RT activity in the absence of any of the compounds is set at 100%.

P4 cells = experiment: Cytotoxicity (CC50), MTT assay on P4 cells; type: cell-based; settings: 3 days
Description: as §1, §3

Compound | melting point | EC50 ([1]; Human immunodeficiency virus 1) | SI (selectivity index = CC50/EC50) [1] | EC50 ([2]; Human immunodeficiency virus 1) | EC50 ([3]; Human immunodeficiency virus 1) | change in RT activity after separation of unbound compound (micro-spin desalting column) [4] | dependence of RT inhibition on time of (pre)incubation with the RT [5] | CC50 at 3 days [6] | Relative (%) RT activity in vitro (compound added at 10 μM) [7] | EC50 [1] | EC50 [2] | EC50 [3] | CC50 (P4 cells)
CCc1c(C)[nH]c(=O)c(CSCCO)c1OC1CC(C)CC(C)C1 (stereo not shown) [Z121, 5-ethyl-6-methyl-4-[(3,5-dimethylcyclohexyl)oxy]-3-{[(2-hydroxyethyl)sulfanyl]methyl}pyridine-2(1H)-one] | 133 to 134 °C | < 1 nM | >27000 | < 1 nM | 14 nM | significant increase in the RT activity | independent of the preincubation time | 27000 nM | 1.4% | – | – | – | –
CCc1c(C)[nH]c(=O)c(CSCCOC(=O)CCl)c1OC1CC(C)CC(C)C1 (stereo not shown) [Z122] | – | – | – | – | – | did not observe any increase in the RT activity | increases with respect to the time of incubation | – | 39.1% | 1 nM | < 1 nM | < 1 nM | 27500 nM
